Results from patent publication US10189853B2, “Conformationally restricted 4-substituted-2,6-dimethylfuro[2,3-d]pyrimidines as anti-tumor agents” (DUQUESNE UNIVERSITY OF THE HOLY SPIRIT, priority 2014, dated 2019).
Like-named read-outs stand apart in the source and are kept apart here. Each block holds one compound with its values, some of them ahead of it.

Columns and labels:
SNB-19 = assay: NCI 60 cell line panel; assay type: cell-based; conditions: Homo sapiens, CNS Cancer
SF-268 = assay: NCI 60 cell line panel; assay type: cell-based; conditions: Homo sapiens, CNS Cancer
LOX IMVI = assay: NCI 60 cell line panel; assay type: cell-based; conditions: Homo sapiens, Melanoma
MDA-MB-435 = assay: NCI 60 cell line panel; assay type: cell-based; conditions: Homo sapiens, Melanoma
[1] = tested on: WTβ3 cells (HeLa overexpressing βIII tubulin); assay: Antiproliferative SRB assay; assay type: cell-based; conditions: for IC50: Homo sapiens, HeLa, SRB, 48 h, read-out: IC50 ± SD in WTβ3
PC-3 = assay: NCI 60 cell line panel; assay type: cell-based; conditions: Homo sapiens, Prostate Cancer
ACHN = assay: NCI 60 cell line panel; assay type: cell-based; conditions: Homo sapiens, Renal Cancer
NCI-H522 = assay: NCI 60 cell line panel; assay type: cell-based; conditions: Homo sapiens, NSCLC
SW-620 = assay: NCI 60 cell line panel; assay type: cell-based; conditions: Homo sapiens, Colon Cancer
NCI/ADR-RES = assay: NCI 60 cell line panel; assay type: cell-based; conditions: Homo sapiens, Ovarian cancer
SF-539 = assay: NCI 60 cell line panel; assay type: cell-based; conditions: Homo sapiens, CNS Cancer
KM12 = assay: NCI 60 cell line panel; assay type: cell-based; conditions: Homo sapiens, Colon Cancer
NCI-H460 = assay: NCI 60 cell line panel; assay type: cell-based; conditions: Homo sapiens, NSCLC
MDA-MB-231/ATCC = assay: NCI 60 cell line panel; assay type: cell-based; conditions: Homo sapiens, Breast Cancer
DU-145 = assay: NCI 60 cell line panel; assay type: cell-based; conditions: Homo sapiens, Prostate Cancer
A431 cancer cells = assay: A431 cytotoxicity (cell proliferation); assay type: cell-based, human
SN 12C = assay: NCI 60 cell line panel; assay type: cell-based; conditions: Homo sapiens, SN12C, Renal Cancer
SK-MEL-2 = assay: NCI 60 cell line panel; assay type: cell-based; conditions: Homo sapiens
TK-10 = assay: NCI 60 cell line panel; assay type: cell-based; conditions: Homo sapiens, Renal Cancer
NCI-H23 = assay: NCI 60 cell line panel; assay type: cell-based; conditions: Homo sapiens, NSCLC
OVCAR-3 = assay: NCI 60 cell line panel; assay type: cell-based; conditions: Homo sapiens, Ovarian cancer
EKVX = assay: NCI 60 cell line panel; assay type: cell-based; conditions: Homo sapiens, NSCLC
MOLT-4 = assay: NCI 60 cell line panel; assay type: cell-based; conditions: Homo sapiens, Leukemia
VEGFR-2 = VEGFR-2 (Homo sapiens (Human), UniProt P35968); assay: VEGFR-2 kinase inhibition, phosphotyrosine ELISA cytoblot; assay type: cell-based; conditions: U251 cells, phosphotyrosine ELISA
Chain of VEGFR-2 (P35968 20-1356): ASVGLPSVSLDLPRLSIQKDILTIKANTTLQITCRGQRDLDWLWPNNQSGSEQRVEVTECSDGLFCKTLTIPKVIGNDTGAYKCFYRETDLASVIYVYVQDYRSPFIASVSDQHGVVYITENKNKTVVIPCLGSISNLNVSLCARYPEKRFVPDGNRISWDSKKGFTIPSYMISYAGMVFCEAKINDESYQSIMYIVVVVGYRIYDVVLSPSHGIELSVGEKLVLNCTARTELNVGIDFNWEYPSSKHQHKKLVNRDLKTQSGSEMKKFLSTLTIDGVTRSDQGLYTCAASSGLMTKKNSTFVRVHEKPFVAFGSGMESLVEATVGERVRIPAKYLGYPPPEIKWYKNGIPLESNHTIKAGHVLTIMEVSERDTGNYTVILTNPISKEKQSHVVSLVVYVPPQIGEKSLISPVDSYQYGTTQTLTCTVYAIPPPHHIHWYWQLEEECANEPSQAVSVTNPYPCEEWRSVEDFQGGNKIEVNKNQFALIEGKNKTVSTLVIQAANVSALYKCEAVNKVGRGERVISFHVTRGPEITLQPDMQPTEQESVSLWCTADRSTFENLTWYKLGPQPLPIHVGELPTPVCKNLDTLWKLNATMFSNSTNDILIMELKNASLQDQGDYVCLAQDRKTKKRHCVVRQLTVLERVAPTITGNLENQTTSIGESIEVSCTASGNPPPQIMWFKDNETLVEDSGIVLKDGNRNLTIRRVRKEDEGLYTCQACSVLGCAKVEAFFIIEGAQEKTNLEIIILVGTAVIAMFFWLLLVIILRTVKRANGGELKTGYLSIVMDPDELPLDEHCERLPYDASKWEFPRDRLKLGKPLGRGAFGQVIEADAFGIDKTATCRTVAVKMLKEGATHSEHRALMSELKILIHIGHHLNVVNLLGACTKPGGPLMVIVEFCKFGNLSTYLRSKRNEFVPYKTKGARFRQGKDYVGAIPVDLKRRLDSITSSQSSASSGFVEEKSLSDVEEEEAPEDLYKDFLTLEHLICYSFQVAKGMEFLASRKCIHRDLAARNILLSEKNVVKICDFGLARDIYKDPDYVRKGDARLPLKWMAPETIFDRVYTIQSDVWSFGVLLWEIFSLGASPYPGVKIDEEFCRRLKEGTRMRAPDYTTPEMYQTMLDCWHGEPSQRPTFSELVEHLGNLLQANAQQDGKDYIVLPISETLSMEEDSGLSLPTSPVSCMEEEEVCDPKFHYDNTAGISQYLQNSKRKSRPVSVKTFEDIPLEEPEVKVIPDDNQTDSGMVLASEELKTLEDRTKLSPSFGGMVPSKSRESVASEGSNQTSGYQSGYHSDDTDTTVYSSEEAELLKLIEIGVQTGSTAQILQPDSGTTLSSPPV

UACC-62 = assay: NCI 60 cell line panel; assay type: cell-based; conditions: Homo sapiens, Melanoma
HL-60(TB) = assay: NCI 60 cell line panel; assay type: cell-based; conditions: Homo sapiens, Leukemia
786-0 = assay: NCI 60 cell line panel; assay type: cell-based; conditions: Homo sapiens
OVCAR-5 = assay: NCI 60 cell line panel; assay type: cell-based; conditions: Homo sapiens, Ovarian cancer
[2] = tested on: M6/6 cells (SK-OV-3 expressing Pgp); assay: Antiproliferative SRB assay; conditions: for Rr value (relative resistance): M6/6 (Pgp) vs SKOV3
MDA-MB-468 = assay: NCI 60 cell line panel; assay type: cell-based; conditions: Homo sapiens, Breast Cancer
K-562 = assay: NCI 60 cell line panel; assay type: cell-based; conditions: Homo sapiens, K562, Leukemia
MDA-435 cells = assay: Antiproliferative SRB assay; assay type: cell-based; conditions: MDA435, 48 h, read-out: IC50 ± SD in MDA-435 cells
MCF7 = assay: NCI 60 cell line panel; assay type: cell-based; conditions: Homo sapiens, Breast Cancer
HS 578T = assay: NCI 60 cell line panel; assay type: cell-based; conditions: Homo sapiens, Breast Cancer
M14 = assay: NCI 60 cell line panel; assay type: cell-based; conditions: Homo sapiens, Melanoma
OVCAR-8 = assay: NCI 60 cell line panel; assay type: cell-based; conditions: Homo sapiens, Ovarian cancer
U251 = assay: NCI 60 cell line panel; assay type: cell-based; conditions: Homo sapiens, U-251, CNS Cancer
HeLa cells = assay: Antiproliferative SRB assay; assay type: cell-based; conditions: Homo sapiens, HeLa, 48 h, read-out: IC50 ± SD in HeLa
OVCAR-4 = assay: NCI 60 cell line panel; assay type: cell-based; conditions: Homo sapiens, Ovarian cancer
COLO 205 = assay: NCI 60 cell line panel; assay type: cell-based; conditions: Homo sapiens, Colon Cancer
SK-MEL-5 = assay: NCI 60 cell line panel; assay type: cell-based; conditions: Homo sapiens, Melanoma
HCT-15 = assay: NCI 60 cell line panel; assay type: cell-based; conditions: Homo sapiens, Colon Cancer
BT-549 = assay: NCI 60 cell line panel; assay type: cell-based; conditions: Homo sapiens
RXF 393 = assay: NCI 60 cell line panel; assay type: cell-based; conditions: Homo sapiens, Renal Cancer
CCRF-CEM = assay: NCI 60 cell line panel; assay type: cell-based; conditions: Homo sapiens, Leukemia
SF-295 = assay: NCI 60 cell line panel; assay type: cell-based; conditions: Homo sapiens, CNS Cancer
HOP-92 = assay: NCI 60 cell line panel; assay type: cell-based; conditions: Homo sapiens, NSCLC
HT29 = assay: NCI 60 cell line panel; assay type: cell-based; conditions: Homo sapiens, HT-29, Colon Cancer
SNB-75 = assay: NCI 60 cell line panel; assay type: cell-based; conditions: Homo sapiens, CNS Cancer
SKOV3 cells = assay: Antiproliferative SRB assay; assay type: cell-based; conditions: Homo sapiens, SK-OV-3, 48 h, read-out: IC50 ± SD in SKOV3 cells
SK-OV-3 = assay: NCI 60 cell line panel; assay type: cell-based; conditions: Homo sapiens, Ovarian cancer
CAKI-1 = assay: NCI 60 cell line panel; assay type: cell-based; conditions: Homo sapiens, Renal Cancer
IGROV1 = assay: NCI 60 cell line panel; assay type: cell-based; conditions: Homo sapiens, IGROV-1, Ovarian cancer
SR = assay: NCI 60 cell line panel; assay type: cell-based; conditions: Homo sapiens, Leukemia
HOP-62 = assay: NCI 60 cell line panel; assay type: cell-based; conditions: Homo sapiens, NSCLC
HCT-116 = assay: NCI 60 cell line panel; assay type: cell-based; conditions: Homo sapiens, Colon Cancer
EGFR = EGFR (Homo sapiens (Human), UniProt P00533); assay: EGFR kinase inhibition, phosphotyrosine ELISA cytoblot; assay type: cell-based; conditions: A431 cells
Chain of EGFR (P00533 25-1210): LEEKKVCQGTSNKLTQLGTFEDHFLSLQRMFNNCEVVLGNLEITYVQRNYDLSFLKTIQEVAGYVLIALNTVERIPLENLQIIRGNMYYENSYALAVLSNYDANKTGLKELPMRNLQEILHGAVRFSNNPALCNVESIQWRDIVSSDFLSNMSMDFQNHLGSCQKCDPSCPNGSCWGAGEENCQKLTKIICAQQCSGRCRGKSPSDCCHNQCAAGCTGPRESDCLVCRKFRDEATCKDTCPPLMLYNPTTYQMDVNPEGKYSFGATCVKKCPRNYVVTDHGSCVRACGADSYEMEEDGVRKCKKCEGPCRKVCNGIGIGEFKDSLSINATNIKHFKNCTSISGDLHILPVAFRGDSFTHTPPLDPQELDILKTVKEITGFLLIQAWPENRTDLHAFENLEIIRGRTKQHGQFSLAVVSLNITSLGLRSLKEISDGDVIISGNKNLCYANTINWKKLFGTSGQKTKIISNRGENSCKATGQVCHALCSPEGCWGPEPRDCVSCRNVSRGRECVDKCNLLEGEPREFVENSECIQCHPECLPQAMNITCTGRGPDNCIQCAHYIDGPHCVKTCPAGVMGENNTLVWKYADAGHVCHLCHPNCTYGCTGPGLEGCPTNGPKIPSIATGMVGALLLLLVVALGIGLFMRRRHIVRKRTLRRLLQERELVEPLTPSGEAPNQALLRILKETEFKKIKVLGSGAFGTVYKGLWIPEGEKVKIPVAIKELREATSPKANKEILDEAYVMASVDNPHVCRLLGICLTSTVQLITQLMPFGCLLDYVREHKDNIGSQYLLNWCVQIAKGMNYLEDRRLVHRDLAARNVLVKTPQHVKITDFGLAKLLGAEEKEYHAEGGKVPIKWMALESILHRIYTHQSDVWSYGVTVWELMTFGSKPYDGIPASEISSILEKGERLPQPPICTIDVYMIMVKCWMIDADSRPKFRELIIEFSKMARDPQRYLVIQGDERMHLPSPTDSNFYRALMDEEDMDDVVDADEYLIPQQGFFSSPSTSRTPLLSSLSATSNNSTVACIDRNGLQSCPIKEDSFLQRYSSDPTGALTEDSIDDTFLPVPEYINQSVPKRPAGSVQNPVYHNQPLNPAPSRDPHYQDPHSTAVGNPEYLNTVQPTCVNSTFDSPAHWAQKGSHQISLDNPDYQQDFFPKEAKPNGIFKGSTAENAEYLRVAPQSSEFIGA

[3] = tested on: cellular microtubules in A-10 cells; assay: Microtubule depolymerization, indirect immunofluorescence; assay type: cell-based; conditions: for effect on cellular microtubules: in words; for EC50: Rattus norvegicus, A10, A-10 cells, 18 h, read-out: EC50 for MT depolymerization in A-10 cells
PDGFR-β = PDGFR-β (Homo sapiens (Human), UniProt P09619); assay: PDGFR-β kinase inhibition, phosphotyrosine ELISA cytoblot; assay type: cell-based; conditions: SH-SY5Y cells, phosphotyrosine ELISA
Chain of PDGFR-β (P09619 33-1106): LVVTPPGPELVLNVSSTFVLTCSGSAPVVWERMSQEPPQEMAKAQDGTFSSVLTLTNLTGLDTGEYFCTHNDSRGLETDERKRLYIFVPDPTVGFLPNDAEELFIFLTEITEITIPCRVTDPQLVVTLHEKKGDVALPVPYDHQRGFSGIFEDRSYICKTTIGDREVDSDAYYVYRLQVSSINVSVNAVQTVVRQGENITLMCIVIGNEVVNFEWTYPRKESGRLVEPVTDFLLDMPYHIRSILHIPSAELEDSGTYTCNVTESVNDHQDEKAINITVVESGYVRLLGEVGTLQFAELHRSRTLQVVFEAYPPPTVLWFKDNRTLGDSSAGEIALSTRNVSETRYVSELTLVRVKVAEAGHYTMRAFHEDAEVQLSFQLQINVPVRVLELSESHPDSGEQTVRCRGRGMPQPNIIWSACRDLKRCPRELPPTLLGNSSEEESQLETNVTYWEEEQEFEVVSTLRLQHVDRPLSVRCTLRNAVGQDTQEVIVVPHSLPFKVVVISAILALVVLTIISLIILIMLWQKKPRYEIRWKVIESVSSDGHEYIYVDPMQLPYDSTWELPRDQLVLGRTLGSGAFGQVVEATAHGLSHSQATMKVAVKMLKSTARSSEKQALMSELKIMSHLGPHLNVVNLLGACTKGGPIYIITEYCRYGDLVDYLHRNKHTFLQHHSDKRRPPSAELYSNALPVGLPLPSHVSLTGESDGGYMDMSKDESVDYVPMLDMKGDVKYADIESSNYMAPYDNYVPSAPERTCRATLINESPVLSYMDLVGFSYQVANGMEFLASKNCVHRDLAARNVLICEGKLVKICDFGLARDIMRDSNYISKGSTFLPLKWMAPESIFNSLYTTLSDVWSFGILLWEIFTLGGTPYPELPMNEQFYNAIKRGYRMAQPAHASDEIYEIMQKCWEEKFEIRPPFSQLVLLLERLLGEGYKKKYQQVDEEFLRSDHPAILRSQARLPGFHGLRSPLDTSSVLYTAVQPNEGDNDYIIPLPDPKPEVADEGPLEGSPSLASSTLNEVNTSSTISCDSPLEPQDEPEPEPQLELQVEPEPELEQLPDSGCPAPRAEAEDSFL

[4] = tested on: chicken embryo chorioallantoic membrane; assay: Chorioallantoic membrane (CAM) assay of angiogenesis; conditions: Gallus gallus, 48 h, read-out: CAM angiogenesis inhibition

SMILES: Cc1nc(N(C)c2ccc3c(c2)CCO3)c2cc(C)oc2n1 [Compound 6, N-(2,3-dihydro-1-benzofuran-5-yl)-N,2,6-trimethylfuro[2,3-d]pyrimidin-4-amine]
GI50 (SNB-19): 0.0565 µM
GI50 (SF-268): 0.0139 µM
GI50 (LOX IMVI): 0.0456 µM
GI50 (MDA-MB-435): 0.014 µM
IC50 [1]: 0.094 ± 0.007 µM
Rr value (relative resistance) ([1]; WTβ3 vs HeLa): 0.9
GI50 (PC-3): 0.0522 µM
GI50 (ACHN): 0.0642 µM
GI50 (NCI-H522): 0.0129 µM
GI50 (SW-620): 0.0416 µM
GI50 (NCI/ADR-RES): 0.0265 µM
GI50 (SF-539): 0.0316 µM
GI50 (KM12): 0.0401 µM
GI50 (NCI-H460): 0.042 µM
GI50 (MDA-MB-231/ATCC): 0.148 µM
GI50 (DU-145): 0.0441 µM
IC50 (A431 cancer cells; Homo sapiens, A-431): 0.0383 ± 0.0042 µM
GI50 (SN 12C): 0.0972 µM
GI50 (SK-MEL-2): 0.0264 µM
GI50 (TK-10): 0.0502 µM
GI50 (NCI-H23): 0.0439 µM
GI50 (OVCAR-3): 0.0245 µM
GI50 (EKVX): 0.07 µM
GI50 (MOLT-4): 0.0767 µM
IC50 (VEGFR-2): 0.0067 ± 0.00081 µM
GI50 (UACC-62): 0.0613 µM
GI50 (HL-60(TB)): 0.0276 µM
GI50 (786-0): 0.0804 µM
GI50 (OVCAR-5): 0.262 µM
Rr value (relative resistance) [2]: 1.3
GI50 (MDA-MB-468): 0.0221 µM
GI50 (K-562): 0.0317 µM
IC50 (MDA-435 cells): 0.0962 ± 0.013 µM
GI50 (MCF7): 0.0402 µM
GI50 (HS 578T): 0.031 µM
GI50 (M14): 0.0348 µM
GI50 (OVCAR-8): 0.063 µM
GI50 (U251): 0.0397 µM
IC50 (HeLa cells): 0.105 ± 0.0058 µM
GI50 (OVCAR-4): 0.0834 µM
GI50 (COLO 205): 0.0403 µM
GI50 (SK-MEL-5): 0.0314 µM
GI50 (HCT-15): 0.0389 µM
GI50 (BT-549): 0.0772 µM
GI50 (RXF 393): 0.0212 µM
GI50 (CCRF-CEM): 0.0581 µM
GI50 (SF-295): 0.0305 µM
GI50 (HOP-92): 0.0458 µM
GI50 (HT29): 0.0324 µM
GI50 (SNB-75): 0.0304 µM
IC50 (SKOV3 cells): 0.12 ± 0.005 µM
GI50 (SK-OV-3): 0.0376 µM
GI50 (CAKI-1): 0.0401 µM
GI50 (IGROV1): 0.0629 µM
GI50 (SR): 0.0366 µM
GI50 (HOP-62): 0.0396 µM
GI50 (HCT-116): 0.0451 µM
IC50 (EGFR): 0.226 ± 0.0502 µM
effect on cellular microtubules [3]: dose-dependent loss of cellular microtubules

SMILES: COc1ccc2c(c1)CCN2c1nc(C)nc2oc(C)cc12 [Compound 8, 4-(5-methoxyindolin-1-yl)-2,6-dimethylfuro[2,3-d]pyrimidine]
IC50 (A431 cancer cells; Homo sapiens, A-431): 0.0422 ± 0.005 µM
IC50 (VEGFR-2): 0.0209 ± 0.0037 µM
IC50 (PDGFR-β): 0.0732 ± 0.0049 µM
IC50 (EGFR): 0.103 ± 0.0182 µM
EC50 [3]: > 10 µM
effect on cellular microtubules [3]: no effect on cellular microtubules

SMILES: CCCOc1ccc(N(C)c2nc(C)nc3oc(C)cc23)cc1 [Compound 12, N-2,6-trimethyl-N-(4-propoxyphenyl)furo[2,3-d]pyrimidin-4-amine]
IC50 (A431 cancer cells): 0.0929 ± 0.0101 µM
Rr value (relative resistance) [2]: 1.3
IC50 ([2]; read-out: IC50 ± SD in M6/6 cells, SRB, 48 h): 0.0308 ± 0.0017 µM

Continued, in another order:

EC50 [3]: > 10 µM
SMILES: COc1ccc2c(ccn2-c2nc(C)nc3oc(C)cc23)c1 [Compound 9, 4-(5-methoxy-1H-indol-1-yl)-2,6-dimethylfuro[2,3-d]pyrimidine]
IC50 (A431 cancer cells; Homo sapiens, A-431): > 0.3 µM
IC50 [4]: > 300 µM

EC50 [3]: > 10 µM
SMILES: CCOc1ccc(N(C)c2nc(C)nc3oc(C)cc23)cc1 [Compound 11, N-(4-ethoxyphenyl)-N,2,6-trimethylfuro[2,3-d]pyrimidin-4-amine]
IC50 (A431 cancer cells; Homo sapiens, A-431): 0.0116 ± 0.0021 µM
IC50 [4]: 50.1 ± 8.2 µM

IC50 [1]: 0.0329 ± 0.0058 µM
IC50 (SKOV3 cells): 0.0063 ± 0.0004 µM
SMILES: CC(=O)O[C@H]1C(=O)[C@@]2(C)[C@H]([C@H](OC(=O)c3ccccc3)[C@]3(O)C[C@H](OC(=O)[C@H](O)[C@@H](NC(=O)c4ccccc4)c4ccccc4)C(C)=C1C3(C)C)[C@]1(OC(C)=O)CO[C@@H]1C[C@@H]2O [Paclitaxel, reference compound]
IC50 (MDA-435 cells): 0.0033 ± 0.0003 µM
